{
  "source": "patent US3997506A",
  "about": "(priority 1974, dated 1976)",
  "key": {"[1]": {"tested_on": "human leucocytes", "assay": "in vitro", "assay_type": "cell-based", "settings": "first experimentation", "procedure": "The cytotoxicity has been investigated on human leucocytes by means of the viability test with Trypan blue.\na. In a first experimentation cultures of leucocytes of a voluntary […] were prepared and caused to undergo incubation with phytohemagglutinin (PHA) and with different concentrations of colchicine or of its derivative (C1 = 2.5 μg/ml of culture, C3 = 10 μg/ml, C5 = 30 μg/ml, C6 = 50 μg/ml). Leucocytes only containing PHA served as controls.\nAfter 3, 42, 68 and 72 hours of incubation a sample of each culture was contacted by a drop of Trypan blue and laid on a slide of a microscope. Then took place the counting of the dead cells (those with assumed an […] colour) and of all the cells present on the slide in order to obtain the ratio of the number of dead cells to the total number of cells. The results expressed as a rate in per cent are shown in the accompanying table 8.\nb. After the experimentation which has just been described, the study of cytotoxicity has been continued with two other samples of human leucocytes still by means of the viability test with Trypan blue.\nC1 = 2.5 μg/ml of culture\nC6 = 50 μg/ml of culture;\nand for the carboxy-1-adamantane fraction to:\nC3 = 4.5 μg/ml of culture\nC6 = 22.5 μg/ml of culture.\nLeucocytes only containing phytohemagglutinin and others containing phytohemagglutinin and 50 μl of methanol served as controls.\nThe percentage of dead cells was determined after different numbers of hours of incubation."}, "[2]": {"tested_on": "leucocytes from rats", "settings": "individual rat, 2 mg/kg oral", "quoted_text": "These rats had been kept fasting from the evening before.\nDuring this experimentation a counting of the leucocytes as well as a leucocytic distribution were made before administration and 6 hours after administration of the substances. Moreover as a cytoxicity index, a measurement of the viability of leucocytes obtained 6 hours after administration was carried out by means of the staining test with Trypan blue."}, "[3]": {"tested_on": "oedema produced by crystals of urate in the hind paw of the rat", "assay_type": "in vivo, Sprague Dawely female rats", "settings": "for % of inhibition of edema / Difference in weight between left and right leg (Average ± standard deviation of mean term): three subcutaneous injections, 6 h after urate", "quoted_text": "The anti-gout activity has also been studied \"in vivo\" with the rat by investigating the inhibition of oedema induced in the hind paw through local injection of sodium urate.\n8 g of uric acid (puriss Fluka A.G. Buchs S.G.) were added to 1,600 ml of boiling water and the pH of the solution was adjusted to 7.4 with 20 % of sodium hydroxyde NaOH. The solution was heated up to 95° C and allowed to cool down to the room temperature of the laboratory while being slightly stirred for 7 to 8 hours. The crystals of sodium urate were recovered through filtration on a Buchner filter and air-dried. The formation of crystals was confirmed through microscopic examination.\nSprague Dawely female rats having an average weight of 200 g were used for this investigation.\nThe oedema was produced through injection into the plantar arch of the left hind foot or leg of 0.1 ml of a suspension of crystals of sodium urate in a physiological salt solution (100 mg/ml). An equal volume of saline solution was injected into the right foot or leg as a control.\nColchicine and the derivative in ethanolic solution were injected through the subcutaneous way.\nThree injections with the same dose were carried out 0.2 and 4 hours after the injection of crystals of urate. The volume injected ranged from 3.5 to 6 ml/kg each time. The reference rats also received three injections of a solution containing the same concentration in ethanol.\nSix hours after the injection of the crystals of urate, the rats were killed through decapitation, the hind legs were amputated at the ankle and weighed."}, "[4]": {"tested_on": "leucocytes from rats", "assay_type": "in vivo, Sprague Dawley SIV 50 he-rats", "settings": "2 mg/kg oral", "quoted_text": "Blood (about 0.2 ml) obtained through puncture of the retro-orbital veinous sinus was collected under sterile conditions prior to the administration of the substances and 6 hours later.\nThen one proceeded with carrying out a micro-culture of the leucocytes in the presence of phytohemagglutinin."}, "[5]": {"tested_on": "phagocytosis by peritoneal macrophages of mice", "assay_type": "cell-based", "settings": "for % phagocytosis with respect to controls (= 100%): 80 min", "quoted_text": "The macrophages the proliferation of which in the animal has been previously stimulated in vivo by an intraperitoneal injection of proteose-peptone (Difco) are collected or gathered in a sterile manner by washing the peritoneal cavity. They are then suspended in a culture medium consisting of a basal Eagle medium (B-D Merieux) admixed with 20 % of serum of foetal calf (Flow Laboratories) and with 100 U/ml of penicillin and of 50 μg/ml of streptomicin. They are distributed at the rate of 5×10^6 cells per dish into Petri Falcon dishes of 35 mm in diameter wherein they will form a monocellular layer. They are cultivated at 37° C in a water-saturated atmosphere of air and of 5 % carbon dioxide CO2.\nFor the measurement of phagocytosis 48 hours cultures (experiments I, II, IV) or 72 hours cultures (experiments II, V) have been used. […] The volume of methanol added to each culture was equal to 10 μl except for experiment I (25 μl)."}, "[6]": {"tested_on": "Sprague Dawley SIV 50 rat", "assay_type": "in vivo, male and female Sprague Dawley SIV 50 rat", "settings": "for Death rate: 10 days", "source_text": "The high toxicity of the new derivative of colchicine (N-desacetyl-N-adamantoyl-thiocolchicine) has been investigated through the oral way with the male and female Sprague Dawley SIV 50 rat having an average weight of 100 g.\nTwo experiments have been carried out. In the first one, only the high toxicity of the derivative has been studied; in the second one, the high toxicity of the derivative has been compared with that of colchicine.\nThe derivative and colchicine have been administered in suspension in propylene glycol through an oesophageal tube at the rate of 2 ml per rat for the first experiment and of 1 ml for the second one.\nThe animals have been observed for 10 days."}, "[7]": {"settings": "6 hours after administration, individual rat, 2 mg/kg"}, "[8]": {"settings": "before administration, individual rat, 2 mg/kg"}},
  "note": "Where “and” joins values, the source holds several entries; their conditions need not be identical. Identical values can stand only once. Like-named read-outs stand apart in the source and are kept apart here.",
  "data": [
    {"smiles": "COc1cc2c(c(OC)c1OC)-c1ccc(SC)c(=O)cc1C(NC(=O)C13CC4CC(CC(C4)C1)C3)CC2", "note": "(single isomer, unassigned) [Derivative, N-desacetyl-N-adamantoyl-thiocolchicine]", "values": [
      {"measurement": "cytotoxicity, colchicine versus derivative (in words)", "setting": "[1]; C1 = 2.5 μg/ml", "value": "substantially the same"},
      {"measurement": "cytotoxicity compared with colchicine (in words)", "setting": "[1]; higher concentrations", "value": "more cytotoxic than colchicine itself"},
      {"measurement": "Basophils", "setting": "[2]; 6 hours after administration", "value": 0},
      {"measurement": "Eosinophils", "setting": "[2]; 6 hours after administration", "value": 0},
      {"measurement": "Lymphocytes", "setting": "[2]; 6 hours after administration, 2 mg/kg", "value": "94 and 82 and 86"},
      {"measurement": "Basophils", "setting": "[2]; before administration", "value": 0},
      {"measurement": "Eosinophils", "setting": "[2]; before administration", "value": 0},
      {"measurement": "Lymphocytes", "setting": "[2]; before administration, 2 mg/kg", "value": "84 and 90 and 82"},
      {"measurement": "Monocytes", "setting": "[2]; before administration, 2 mg/kg", "value": "2 and 1"},
      {"measurement": "Neutrophils with segmented nucleus", "setting": "[2]; before administration, 2 mg/kg", "value": "12 and 8"},
      {"measurement": "% of inhibition of edema", "setting": "[3]; 2 mg/kg", "value": 10, "unit": "%"},
      {"measurement": "Difference in weight between left and right leg (Average ± standard deviation of mean term)", "setting": "[3]; 2 mg/kg", "value": "0.264 ± 0.031", "unit": "g"},
      {"measurement": "% of inhibition of edema", "setting": "[3]; 6 mg/kg", "value": 50, "unit": "%"},
      {"measurement": "Difference in weight between left and right leg (Average ± standard deviation of mean term)", "setting": "[3]; 6 mg/kg", "value": "0.145 ± 0.019", "unit": "g"},
      {"measurement": "protection against the oedema produced by crystals of urate (in words)", "setting": "[3]; colchicine 2 mg/kg, derivative 6 mg/kg", "value": "significant protection"},
      {"measurement": "embodied radioactivity, mean", "setting": "[4]; 6 hours after administration, group mean", "value": "10,664±2,087 cpm"},
      {"measurement": "cpm / number of lymphocytes, mean", "setting": "[4]; 6 hours after administration, group mean, factor and spread printed on following lines", "value": "4.71 × 10^-^2 cpm/number of lymphoc"},
      {"measurement": "Number of lymphocytes/culture", "setting": "[4]; [7]", "value": "172,500 lymphocytes/culture and 244,760 lymphocytes/culture and 261,900 lymphocytes/culture"},
      {"measurement": "embodied radioactivity", "setting": "[4]; [7]", "value": "8,466 cpm and 8,690 cpm and 14,836 cpm"},
      {"measurement": "cpm / number of lymphocytes (immunity response)", "setting": "[4]; 6 hours after administration, individual rat, factor × 10^-^2, 2 mg/kg", "value": "4.91 × 10^-^2 cpm/number of lymphoc and 3.55 × 10^-^2 cpm/number of lymphoc and 5.66 × 10^-^2 cpm/number of lymphoc"},
      {"measurement": "embodied radioactivity, mean", "setting": "[4]; before administration, group mean", "value": "12,227±2,228 cpm"},
      {"measurement": "Number of lymphocytes/culture", "setting": "[4]; [8]", "value": "132,480 lymphocytes/culture and 147,000 lymphocytes/culture and 271,460 lymphocytes/culture and 257,060 lymphocytes/culture"},
      {"measurement": "embodied radioactivity", "setting": "[4]; [8]", "value": "7,384 cpm and 10,195 cpm and 7,709 cpm and 13,619 cpm"},
      {"measurement": "inhibition of phagocytosis", "setting": "[5]; 0.004 μg", "value": 10, "unit": "%"},
      {"measurement": "% phagocytosis with respect to controls (= 100%)", "setting": "[5]; 0.004 μg, Experimentation III", "value": 93.8, "unit": "%"},
      {"measurement": "% phagocytosis with respect to controls (= 100%)", "setting": "[5]; 0.004 μg, Experimentation IV", "value": 85.8, "unit": "%"},
      {"measurement": "% phagocytosis with respect to controls (= 100%)", "setting": "[5]; 0.04 μg, Experimentation III", "value": 84.5, "unit": "%"},
      {"measurement": "% phagocytosis with respect to controls (= 100%)", "setting": "[5]; 0.04 μg, Experimentation IV", "value": 85.9, "unit": "%"},
      {"measurement": "% phagocytosis with respect to controls (= 100%)", "setting": "[5]; 0.04 μg, Experimentation V", "value": 89.9, "unit": "%"},
      {"measurement": "% phagocytosis with respect to controls (= 100%)", "setting": "[5]; 0.4 μg, Experimentation III", "value": 72.8, "unit": "%"},
      {"measurement": "% phagocytosis with respect to controls (= 100%)", "setting": "[5]; 0.4 μg, Experimentation IV", "value": 77.6, "unit": "%"},
      {"measurement": "% phagocytosis with respect to controls (= 100%)", "setting": "[5]; 0.4 μg, Experimentation V", "value": 76.2, "unit": "%"},
      {"measurement": "inhibition of phagocytosis", "setting": "[5]; 4 μg", "value": 65, "unit": "%"},
      {"measurement": "% phagocytosis with respect to controls (= 100%)", "setting": "[5]; 4 μg, Experimentation II", "value": 22.5, "unit": "%"},
      {"measurement": "% phagocytosis with respect to controls (= 100%)", "setting": "[5]; 4 μg, Experimentation III", "value": 33.1, "unit": "%"},
      {"measurement": "% phagocytosis with respect to controls (= 100%)", "setting": "[5]; 4 μg, Experimentation IV", "value": 42.5, "unit": "%"},
      {"measurement": "% phagocytosis with respect to controls (= 100%)", "setting": "[5]; 4 μg, Experimentation V", "value": 39.3, "unit": "%"},
      {"measurement": "% phagocytosis with respect to controls (= 100%)", "setting": "[5]; 5 μg, Experimentation II", "value": 25.9, "unit": "%"},
      {"measurement": "% phagocytosis with respect to controls (= 100%)", "setting": "[5]; 10 μg, Experimentation II", "value": 25.5, "unit": "%"},
      {"measurement": "% phagocytosis with respect to controls (= 100%)", "setting": "[5]; 12.5 μg, Experimentation I", "value": 46.2, "unit": "%"},
      {"measurement": "% phagocytosis with respect to controls (= 100%)", "setting": "[5]; 20 μg, Experimentation II", "value": 31.3, "unit": "%"},
      {"measurement": "% phagocytosis with respect to controls (= 100%)", "setting": "[5]; 30 μg, Experimentation II", "value": 31.1, "unit": "%"},
      {"measurement": "% phagocytosis with respect to controls (= 100%)", "setting": "[5]; 40 μg, Experimentation II", "value": 31.0, "unit": "%"},
      {"measurement": "% phagocytosis with respect to controls (= 100%)", "setting": "[5]; 40 μg, Experimentation III", "value": 43.7, "unit": "%"},
      {"measurement": "% phagocytosis with respect to controls (= 100%)", "setting": "[5]; 40 μg, Experimentation IV", "value": 48.4, "unit": "%"},
      {"measurement": "inhibition of phagocytosis of the red blood-corpuscles by the macrophages (in words)", "setting": "[5]; compared with colchicine", "value": "will inhibit phagocytosis of the red blood-corpuscles by the macrophages nearly as colchicine would do"},
      {"measurement": "deaths (in words)", "setting": "[6]; 3 g/kg", "value": "no death has been detected"},
      {"measurement": "Death rate", "setting": "[6]; first experiment, 2.000 mg/kg oral", "value": "0/10"},
      {"measurement": "Death rate", "setting": "[6]; first experiment, 3.000 mg/kg oral", "value": "0/10"},
      {"measurement": "Death rate", "setting": "[6]; second experiment, 100 mg/kg oral", "value": "0/6"},
      {"measurement": "Death rate", "setting": "[6]; second experiment, 500 mg/kg oral", "value": "0/6"},
      {"measurement": "Death rate", "setting": "[6]; second experiment, 1,000 mg/kg oral", "value": "0/6"},
      {"measurement": "Death rate", "setting": "[6]; second experiment, 2,000 mg/kg oral", "value": "0/6"},
      {"measurement": "Death rate", "setting": "[6]; second experiment, 3,000 mg/kg oral", "value": "0/6"}
    ]}
  ]
}
